Assay: xn = mol fraction of the nth substance listed
Conditions: 101 kPa, Liquid; for viscosity: Concentric cylinders viscometry; for mass density: Vibrating tube method

CCCn1cc[n+](C)c1.F[B-](F)(F)F [1-propyl-3-methylimidazolium tetrafluoroborate] + CCn1cc[n+](C)c1.F[B-](F)(F)F
Conditions | mass density [kg/m3] | viscosity [mPa·s]
293.15 K, x2 = 0 | 1239.3 | 95.44
293.15 K, x2 = 0.1003 | 1243.5 | 88.85
293.15 K, x2 = 0.2001 | 1247.8 | 82.33
293.15 K, x2 = 0.2997 | 1251.7 | 76.28
293.15 K, x2 = 0.3999 | 1256.1 | 70.61
293.15 K, x2 = 0.4996 | 1260.6 | 65.46
293.15 K, x2 = 0.5991 | 1265 | 60.73
293.15 K, x2 = 0.6997 | 1269.7 | 56.34
293.15 K, x2 = 0.7999 | 1274.4 | 52.31
293.15 K, x2 = 0.8998 | 1279.2 | 48.61
298.15 K, x2 = 0 | 1235.7 | 74.04
298.15 K, x2 = 0.1003 | 1239.8 | 69.32
298.15 K, x2 = 0.2001 | 1244 | 64.62
298.15 K, x2 = 0.2997 | 1248 | 60.23
298.15 K, x2 = 0.3999 | 1252.4 | 56.1
298.15 K, x2 = 0.4996 | 1256.9 | 52.32
298.15 K, x2 = 0.5991 | 1261.3 | 48.83
298.15 K, x2 = 0.6997 | 1266 | 45.57
298.15 K, x2 = 0.7999 | 1270.6 | 42.59
298.15 K, x2 = 0.8998 | 1275.5 | 39.79
303.15 K, x2 = 0 | 1232 | 58.59
303.15 K, x2 = 0.1003 | 1236.2 | 55.12
303.15 K, x2 = 0.2001 | 1240.4 | 51.66
303.15 K, x2 = 0.2997 | 1244.3 | 48.42
303.15 K, x2 = 0.3999 | 1248.7 | 45.34
303.15 K, x2 = 0.4996 | 1253.2 | 42.52
303.15 K, x2 = 0.5991 | 1257.5 | 39.91
303.15 K, x2 = 0.6997 | 1262.1 | 37.45
303.15 K, x2 = 0.7999 | 1266.9 | 35.17
303.15 K, x2 = 0.8998 | 1271.7 | 33.06
308.15 K, x2 = 0 | 1228.3 | 47.16
308.15 K, x2 = 0.1003 | 1232.5 | 44.58
308.15 K, x2 = 0.2001 | 1236.6 | 41.98
308.15 K, x2 = 0.2997 | 1240.7 | 39.54
308.15 K, x2 = 0.3999 | 1245 | 37.21
308.15 K, x2 = 0.4996 | 1249.3 | 35.08
308.15 K, x2 = 0.5991 | 1253.8 | 33.08
308.15 K, x2 = 0.6997 | 1258.4 | 31.19
308.15 K, x2 = 0.7999 | 1263.1 | 29.45
308.15 K, x2 = 0.8998 | 1267.7 | 27.82
313.15 K, x2 = 0 | 1224.7 | 38.56
313.15 K, x2 = 0.1003 | 1228.8 | 36.6
313.15 K, x2 = 0.2001 | 1233 | 34.63
313.15 K, x2 = 0.2997 | 1237 | 32.76
313.15 K, x2 = 0.3999 | 1241.3 | 30.97
313.15 K, x2 = 0.4996 | 1245.6 | 29.33
313.15 K, x2 = 0.5991 | 1250.1 | 27.78
313.15 K, x2 = 0.6997 | 1254.6 | 26.3
313.15 K, x2 = 0.7999 | 1259.3 | 24.95
313.15 K, x2 = 0.8998 | 1264 | 23.67
318.15 K, x2 = 0 | 1221 | 31.98
318.15 K, x2 = 0.1003 | 1225.1 | 30.46
318.15 K, x2 = 0.2001 | 1229.3 | 28.93
318.15 K, x2 = 0.2997 | 1233.3 | 27.48
318.15 K, x2 = 0.3999 | 1237.6 | 26.08
318.15 K, x2 = 0.4996 | 1241.9 | 24.8
318.15 K, x2 = 0.5991 | 1246.3 | 23.6
318.15 K, x2 = 0.6997 | 1250.9 | 22.43
318.15 K, x2 = 0.7999 | 1255.6 | 21.36
318.15 K, x2 = 0.8998 | 1260.3 | 20.35
323.15 K, x2 = 0 | 1217.4 | 26.83
323.15 K, x2 = 0.1003 | 1221.5 | 25.66
323.15 K, x2 = 0.2001 | 1225.6 | 24.47
323.15 K, x2 = 0.2997 | 1229.7 | 23.33
323.15 K, x2 = 0.3999 | 1233.9 | 22.21
323.15 K, x2 = 0.4996 | 1238.2 | 21.2
323.15 K, x2 = 0.5991 | 1242.6 | 20.24
323.15 K, x2 = 0.6997 | 1247.1 | 19.31
323.15 K, x2 = 0.7999 | 1251.8 | 18.46
323.15 K, x2 = 0.8998 | 1256.5 | 17.65
328.15 K, x2 = 0 | 1213.8 | 22.77
328.15 K, x2 = 0.1003 | 1217.9 | 21.85
328.15 K, x2 = 0.2001 | 1222 | 20.91
328.15 K, x2 = 0.2997 | 1226 | 20.01
328.15 K, x2 = 0.3999 | 1230.3 | 19.1
328.15 K, x2 = 0.4996 | 1234.6 | 18.3
328.15 K, x2 = 0.5991 | 1238.9 | 17.52
328.15 K, x2 = 0.6997 | 1243.4 | 16.78
328.15 K, x2 = 0.7999 | 1248.1 | 16.07
328.15 K, x2 = 0.8998 | 1252.8 | 15.43
333.15 K, x2 = 0 | 1210.2 | 19.54
333.15 K, x2 = 0.1003 | 1214.3 | 18.8
333.15 K, x2 = 0.2001 | 1218.4 | 18.05
333.15 K, x2 = 0.2997 | 1222.4 | 17.32
333.15 K, x2 = 0.3999 | 1226.6 | 16.57
333.15 K, x2 = 0.4996 | 1230.9 | 15.92
333.15 K, x2 = 0.5991 | 1235.2 | 15.29
333.15 K, x2 = 0.6997 | 1239.8 | 14.67
333.15 K, x2 = 0.7999 | 1244.4 | 14.1
333.15 K, x2 = 0.8998 | 1249.1 | 13.58
338.15 K, x2 = 0 | 1206.6 | 16.92
338.15 K, x2 = 0.1003 | 1210.7 | 16.33
338.15 K, x2 = 0.2001 | 1214.8 | 15.72
338.15 K, x2 = 0.2997 | 1218.8 | 15.12
338.15 K, x2 = 0.3999 | 1222.9 | 14.49
338.15 K, x2 = 0.4996 | 1227.3 | 13.96
338.15 K, x2 = 0.5991 | 1231.6 | 13.43
338.15 K, x2 = 0.6997 | 1236.1 | 12.94
338.15 K, x2 = 0.7999 | 1240.7 | 12.46
338.15 K, x2 = 0.8998 | 1245.4 | 12.04
343.15 K, x2 = 0 | 1203 | 14.77
343.15 K, x2 = 0.1003 | 1207.1 | 14.3
343.15 K, x2 = 0.2001 | 1211.1 | 13.8
343.15 K, x2 = 0.2997 | 1215.2 | 13.3
343.15 K, x2 = 0.3999 | 1219.4 | 12.77
343.15 K, x2 = 0.4996 | 1223.7 | 12.32
343.15 K, x2 = 0.5991 | 1228 | 11.89
343.15 K, x2 = 0.6997 | 1232.5 | 11.47
343.15 K, x2 = 0.7999 | 1237.1 | 11.07
343.15 K, x2 = 0.8998 | 1241.7 | 10.74
